Measured values taken from patent US6746623B2, “Alkyl glycidyl ether-capped diamine foam controlling agent” (Air Products and Chemicals, Inc., priority 2002, dated 2004).

Columns and labels:
[1] = Foam test of DOSS solutions with added foam control agent (based on ASTM D 1173-53); format: physicochemical; conditions: 0.1 wt % foam control agent added to 0.1 wt % DOSS in water; for Initial foam height: ambient temperature
Excerpt: Dioctyl sodium sulfosuccinate (DOSS) is a commonly used surfactant in waterborne compositions. DOSS is capable of forming stable foams when dissolved in water. The foam control characteristics of various foam control agents may be assessed by measuring the foam generated by a 0.1 wt % aqueous solution of DOSS and comparing this to the foam generated after the addition of foam control agent to a 0.1 wt % DOSS solution. The DOSS utilized in these measurements was an Aerosol OT 75% surfactant obtained from Cytec Industries. The foaming and foam stability of DOSS were measured using a procedure based upon ASTM D 1173-53 at ambient temperature, typically 23° C.
In these tests, an aqueous solution of DOSS or the filtrate from the DOSS/foam control agent mixture is added from an elevated foam pipette to a foam receiver containing the same solution. The foam height is measured at the completion of the addition (“Initial Foam Height”) and the time required for the foam to dissipate at the air-liquid interface (“Time to 0 Foam”) is recorded. This test provides a comparison between the foaming characteristics of various aqueous compositions. The results for the foam control agents prepared in Examples 1-28 are reported in Table 1 along with comparative data for a 0.1 wt % solution of DOSS with no added foam control agent (Example 29).

[2] = Dynamic surface tension of aqueous solutions, maximum bubble pressure method; format: physicochemical; conditions: for γ at 0.1 wt %, 0.1 b/s / γ at 0.1 wt %, 1 b/s / γ at 0.1 wt %, 6 b/s / γ at 0.1 wt %, 20 b/s: 0.1 wt % in distilled water; for γ limiting, 0.1 b/s / γ limiting, 1 b/s / γ limiting, 6 b/s / γ limiting, 20 b/s: saturated solution made using 1.0 wt % in water
Excerpt: Dynamic surface tension data were obtained for the soluble portion of these samples using the maximum bubble pressure method at bubble rates from 0.1 bubbles/sec (b/s) to 20 b/s.
The relative efficiency of surface tension reduction can be obtained by comparing surface tension reduction of solutions containing the same amount of different surfactants. Such data are given for 0.1 wt % solutions of the foam control agents at 0.1, 1, 6 and 20 bubbles/second (b/s). The limiting surface tensions at 0.1, 1, 6 and 20 b/s represent the lowest surface tensions in water which can be achieved at the given surface creation rates for a given surfactant regardless of the amount of surfactant used and is used to evaluate the effectiveness of a surfactant. In most cases the limiting surface tension was taken at 1.0 wt % since the foam control agent was insoluble at this concentration. In the case where the foam control agent was soluble at 1.0 wt %, the limiting surface tension was taken at 5.0 wt % (where the samples were insoluble). These values give information about the relative ability to a surfactant to reduce surface defects under near-equilibrium conditions (0.1 b/s) through very dynamic conditions (20 b/s).

Row | Structure (SMILES) | Foam height after 1 min [1] [cm] | Foam height after 10 min [1] [cm] | Initial foam height [1] [cm] | γ at 0.1 wt %, 0.1 b/s [2] [dyne/cm] | γ at 0.1 wt %, 1 b/s [2] [dyne/cm] | γ at 0.1 wt %, 6 b/s [2] [dyne/cm] | γ at 0.1 wt %, 20 b/s [2] [dyne/cm] | γ limiting, 0.1 b/s [2] [dyne/cm] | γ limiting, 1 b/s [2] [dyne/cm] | γ limiting, 6 b/s [2] [dyne/cm] | γ limiting, 20 b/s [2] [dyne/cm]
1 | CCCCOCC(O)CNCCN(CC(O)COCCCC)CC(O)COCCCC (stereo not drawn) [EDA/3 BGE] | 1.4 | 1.2 | 2.0 | 37.6 | 39.6 | 43.2 | 51.3 | 34.9 | 35.6 | 36.5 | 38.3
2 | CCCCOCC(O)CNCCCCCCN (racemic) [HDA/1 BGE] | 0.4 | 0 | 1.4 | 42.3 | 44.8 | 47.9 | 52.6 | 39.3 | 40.1 | 41.1 | 42.9
3 | CCCCOCC(O)CN(CCCOCCOCCOCCCN(CC(O)COCCCC)CC(O)COCCCC)CC(O)COCCCC (stereo not drawn) [DAPDEG/4 BGE] | 1.2 | 0.2 | 2.3 | 37.4 | 38.9 | 42.0 | 50.7 | 34.2 | 34.5 | 35.5 | 39.1
4 | CCCCOCC(O)CNCCCCCCN(CC(O)COCCCC)CC(O)COCCCC (stereo not drawn) [HDA/3 BGE] | 0 | 0 | 1.2 | 40.3 | 43.1 | 47.5 | 55.4 | 37.9 | 39.1 | 40.7 | 44.4
5 | CCCCOCC(O)CNC1CCC(CC2CCC(N)CC2)CC1 (mixture of isomers) [PACM/1 BGE] | 0 | 0 | 2.3 | 44.7 | 47.0 | 50.3 | 55.2 | 43.5 | 44.5 | 46.2 | 48.7
6 | CCCCOCC(O)CNCCCOCCOCCOCCCN(CC(O)COCCCC)CC(O)COCCCC (stereo not drawn) [DAPDEG/3 BGE] | 0.9 | 0.1 | 1.9 | 38.0 | 39.4 | 42.1 | 47.6 | 33.5 | 38.7 | 34.3 | 36.1
